{
  "source": "PubChem BioAssay AID1963972",
  "about": "(Molecular Pharmacology Branch, DTP, NCI, 2024);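 also: spheroids exposed to compounds for seven days before reading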",
  "system": "945468-187-T-J2-PDC spheroids viability",
  "test": "Anticancer human tumor 945468-187-T-J2-PDC patient-derived rectal carcinoma cell line growth inhibition [PI3K]",
  "conditions": "spheroids with HUVEC and MSC; for IC50: curve of first compound; for viability, T/C: stronger effect = lower value",
  "procedure,_shortened": "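Multi-cell spheroids combine tumor cells with HUVEC and human MSCs, treated with targeted agents alone or with inavolisib, alpelisib, duvelisib or copanlisib. Concentrations fall in half-log steps from at or near clinical Cmax, or from 10 microM where Cmax is unknown; viability read-out.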",
  "key": {"[1]": {"conditions": "second compound 0.00316 µM, first compound 0.0316 µM"}, "[2]": {"conditions": "second compound 0.00316 µM, first compound 0.1 µM"}, "[3]": {"conditions": "second compound 0.00316 µM, first compound 0.316 µM"}, "[4]": {"conditions": "second compound 0.00316 µM, first compound 1 µM"}, "[5]": {"conditions": "second compound 0.01 µM, first compound 0.0316 µM"}, "[6]": {"conditions": "second compound 0.01 µM, first compound 0.1 µM"}, "[7]": {"conditions": "second compound 0.01 µM, first compound 0.316 µM"}, "[8]": {"conditions": "second compound 0.01 µM, first compound 1 µM"}, "[9]": {"conditions": "second compound 0.0316 µM, first compound 0.0316 µM"}, "[10]": {"conditions": "second compound 0.0316 µM, first compound 0.1 µM"}, "[11]": {"conditions": "second compound 0.0316 µM, first compound 0.316 µM"}, "[12]": {"conditions": "second compound 0.0316 µM, first compound 1 µM"}, "[13]": {"conditions": "second compound 0.1 µM, first compound 0.0316 µM"}, "[14]": {"conditions": "second compound 0.1 µM, first compound 0.1 µM"}, "[15]": {"conditions": "second compound 0.1 µM, first compound 0.316 µM"}, "[16]": {"conditions": "second compound 0.1 µM, first compound 1 µM"}, "[17]": {"conditions": "second compound 0.316 µM, first compound 0.0316 µM"}, "[18]": {"conditions": "second compound 0.316 µM, first compound 0.1 µM"}, "[19]": {"conditions": "second compound 0.316 µM, first compound 0.316 µM"}, "[20]": {"conditions": "second compound 0.316 µM, first compound 1 µM"}, "[21]": {"conditions": "second compound 1 µM, first compound 0.0316 µM"}, "[22]": {"conditions": "second compound 1 µM, first compound 0.1 µM"}, "[23]": {"conditions": "second compound 1 µM, first compound 0.316 µM"}, "[24]": {"conditions": "second compound 1 µM, first compound 1 µM"}},
  "data": [
    {"smiles": "CC(C)NCC(C(=O)N1CCN(c2ncnc3c2C(C)CC3O)CC1)c1ccc(Cl)cc1", "note": "(centres undefined) + COc1c(OCCCN2CCOCC2)ccc2c3n(c(=NC(=O)c4cnc(N)nc4)nc12)CCN3", "values": [
      {"measurement": "IC50", "setting": "second compound 0.00316 µM", "value": "> 10000", "unit": "nM"},
      {"measurement": "IC50", "setting": "second compound 0.01 µM", "value": "> 10000", "unit": "nM"},
      {"measurement": "IC50", "setting": "second compound 0.0316 µM", "value": "> 10000", "unit": "nM"},
      {"measurement": "IC50", "setting": "second compound 0.1 µM", "value": "> 10000", "unit": "nM"},
      {"measurement": "IC50", "setting": "second compound 0.316 µM", "value": "< 31.6", "unit": "nM"},
      {"measurement": "IC50", "setting": "second compound 1 µM", "value": "< 31.6", "unit": "nM"},
      {"measurement": "viability, T/C", "setting": "[1]", "value": 88.9, "unit": "%"},
      {"measurement": "viability, T/C", "setting": "[2]", "value": 110, "unit": "%"},
      {"measurement": "viability, T/C", "setting": "[3]", "value": 129, "unit": "%"},
      {"measurement": "viability, T/C", "setting": "[4]", "value": 106, "unit": "%"},
      {"measurement": "viability, T/C", "setting": "second compound 0.00316 µM, first compound 3.16 µM", "value": 110, "unit": "%"},
      {"measurement": "viability, T/C", "setting": "second compound 0.00316 µM, first compound 10 µM", "value": 90.3, "unit": "%"},
      {"measurement": "viability, T/C", "setting": "[5]", "value": 104, "unit": "%"},
      {"measurement": "viability, T/C", "setting": "[6]", "value": 109, "unit": "%"},
      {"measurement": "viability, T/C", "setting": "[7]", "value": 111, "unit": "%"},
      {"measurement": "viability, T/C", "setting": "[8]", "value": 87.7, "unit": "%"},
      {"measurement": "viability, T/C", "setting": "second compound 0.01 µM, first compound 3.16 µM", "value": 90.2, "unit": "%"},
      {"measurement": "viability, T/C", "setting": "second compound 0.01 µM, first compound 10 µM", "value": 86.6, "unit": "%"},
      {"measurement": "viability, T/C", "setting": "[9]", "value": 83.6, "unit": "%"},
      {"measurement": "viability, T/C", "setting": "[10]", "value": 125, "unit": "%"},
      {"measurement": "viability, T/C", "setting": "[11]", "value": 112, "unit": "%"},
      {"measurement": "viability, T/C", "setting": "[12]", "value": 103, "unit": "%"},
      {"measurement": "viability, T/C", "setting": "second compound 0.0316 µM, first compound 3.16 µM", "value": 84, "unit": "%"},
      {"measurement": "viability, T/C", "setting": "second compound 0.0316 µM, first compound 10 µM", "value": 101, "unit": "%"},
      {"measurement": "viability, T/C", "setting": "[13]", "value": 87.2, "unit": "%"},
      {"measurement": "viability, T/C", "setting": "[14]", "value": 106, "unit": "%"},
      {"measurement": "viability, T/C", "setting": "[15]", "value": 120, "unit": "%"},
      {"measurement": "viability, T/C", "setting": "[16]", "value": 80.5, "unit": "%"},
      {"measurement": "viability, T/C", "setting": "second compound 0.1 µM, first compound 3.16 µM", "value": 82.3, "unit": "%"},
      {"measurement": "viability, T/C", "setting": "second compound 0.1 µM, first compound 10 µM", "value": 86.1, "unit": "%"},
      {"measurement": "viability, T/C", "setting": "[17]", "value": 47.1, "unit": "%"},
      {"measurement": "viability, T/C", "setting": "[18]", "value": 51.6, "unit": "%"},
      {"measurement": "viability, T/C", "setting": "[19]", "value": 39.7, "unit": "%"},
      {"measurement": "viability, T/C", "setting": "[20]", "value": 44.6, "unit": "%"},
      {"measurement": "viability, T/C", "setting": "second compound 0.316 µM, first compound 3.16 µM", "value": 45.4, "unit": "%"},
      {"measurement": "viability, T/C", "setting": "second compound 0.316 µM, first compound 10 µM", "value": 36.8, "unit": "%"},
      {"measurement": "viability, T/C", "setting": "[21]", "value": 21, "unit": "%"},
      {"measurement": "viability, T/C", "setting": "[22]", "value": 21.3, "unit": "%"},
      {"measurement": "viability, T/C", "setting": "[23]", "value": 23.3, "unit": "%"},
      {"measurement": "viability, T/C", "setting": "[24]", "value": 20.9, "unit": "%"},
      {"measurement": "viability, T/C", "setting": "second compound 1 µM, first compound 3.16 µM", "value": 24.6, "unit": "%"},
      {"measurement": "viability, T/C", "setting": "second compound 1 µM, first compound 10 µM", "value": 21.6, "unit": "%"}
    ]},
    {"smiles": "CCN1CCN(Cc2ccc(Nc3ncc(F)c(-c4cc(F)c5nc(C)n(C(C)C)c5c4)n3)nc2)CC1", "note": "+ COc1c(OCCCN2CCOCC2)ccc2c3n(c(=NC(=O)c4cnc(N)nc4)nc12)CCN3", "values": [
      {"measurement": "IC50", "setting": "second compound 0.00316 µM", "value": "> 1000", "unit": "nM"},
      {"measurement": "IC50", "setting": "second compound 0.01 µM", "value": "> 1000", "unit": "nM"},
      {"measurement": "IC50", "setting": "second compound 0.0316 µM", "value": 704, "unit": "nM"},
      {"measurement": "IC50", "setting": "second compound 0.1 µM", "value": 199, "unit": "nM"},
      {"measurement": "IC50", "setting": "second compound 0.316 µM", "value": "< 3.16", "unit": "nM"},
      {"measurement": "IC50", "setting": "second compound 1 µM", "value": "< 3.16", "unit": "nM"},
      {"measurement": "viability, T/C", "setting": "second compound 0.00316 µM, first compound 0.00316 µM", "value": 107, "unit": "%"},
      {"measurement": "viability, T/C", "setting": "second compound 0.00316 µM, first compound 0.01 µM", "value": 93.5, "unit": "%"},
      {"measurement": "viability, T/C", "setting": "[1]", "value": 104, "unit": "%"},
      {"measurement": "viability, T/C", "setting": "[2]", "value": 102, "unit": "%"},
      {"measurement": "viability, T/C", "setting": "[3]", "value": 87.6, "unit": "%"},
      {"measurement": "viability, T/C", "setting": "[4]", "value": 75.1, "unit": "%"},
      {"measurement": "viability, T/C", "setting": "second compound 0.01 µM, first compound 0.00316 µM", "value": 119, "unit": "%"},
      {"measurement": "viability, T/C", "setting": "second compound 0.01 µM, first compound 0.01 µM", "value": 128, "unit": "%"},
      {"measurement": "viability, T/C", "setting": "[5]", "value": 94.9, "unit": "%"},
      {"measurement": "viability, T/C", "setting": "[6]", "value": 115, "unit": "%"},
      {"measurement": "viability, T/C", "setting": "[7]", "value": 84, "unit": "%"},
      {"measurement": "viability, T/C", "setting": "[8]", "value": 66.2, "unit": "%"},
      {"measurement": "viability, T/C", "setting": "second compound 0.0316 µM, first compound 0.00316 µM", "value": 120, "unit": "%"},
      {"measurement": "viability, T/C", "setting": "second compound 0.0316 µM, first compound 0.01 µM", "value": 110, "unit": "%"},
      {"measurement": "viability, T/C", "setting": "[9]", "value": 92.9, "unit": "%"},
      {"measurement": "viability, T/C", "setting": "[10]", "value": 112, "unit": "%"},
      {"measurement": "viability, T/C", "setting": "[11]", "value": 69, "unit": "%"},
      {"measurement": "viability, T/C", "setting": "[12]", "value": 41.6, "unit": "%"},
      {"measurement": "viability, T/C", "setting": "second compound 0.1 µM, first compound 0.00316 µM", "value": 105, "unit": "%"},
      {"measurement": "viability, T/C", "setting": "second compound 0.1 µM, first compound 0.01 µM", "value": 91.8, "unit": "%"},
      {"measurement": "viability, T/C", "setting": "[13]", "value": 93.1, "unit": "%"},
      {"measurement": "viability, T/C", "setting": "[14]", "value": 72.7, "unit": "%"},
      {"measurement": "viability, T/C", "setting": "[15]", "value": 34.4, "unit": "%"},
      {"measurement": "viability, T/C", "setting": "[16]", "value": 22.1, "unit": "%"},
      {"measurement": "viability, T/C", "setting": "second compound 0.316 µM, first compound 0.00316 µM", "value": 48.7, "unit": "%"},
      {"measurement": "viability, T/C", "setting": "second compound 0.316 µM, first compound 0.01 µM", "value": 41.2, "unit": "%"},
      {"measurement": "viability, T/C", "setting": "[17]", "value": 39.5, "unit": "%"},
      {"measurement": "viability, T/C", "setting": "[18]", "value": 24.4, "unit": "%"},
      {"measurement": "viability, T/C", "setting": "[19]", "value": 20.2, "unit": "%"},
      {"measurement": "viability, T/C", "setting": "[20]", "value": 21.4, "unit": "%"},
      {"measurement": "viability, T/C", "setting": "second compound 1 µM, first compound 0.00316 µM", "value": 21.7, "unit": "%"},
      {"measurement": "viability, T/C", "setting": "second compound 1 µM, first compound 0.01 µM", "value": 20.8, "unit": "%"},
      {"measurement": "viability, T/C", "setting": "[21]", "value": 14.1, "unit": "%"},
      {"measurement": "viability, T/C", "setting": "[22]", "value": 17.9, "unit": "%"},
      {"measurement": "viability, T/C", "setting": "[23]", "value": 14.3, "unit": "%"},
      {"measurement": "viability, T/C", "setting": "[24]", "value": 16.3, "unit": "%"}
    ]}
  ]
}
